From ChEMBL document CHEMBL1201862, “PubChem BioAssay data set” (2004) come the findings set out here.

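Protocol summary: plate cells (96-well), add compound at 5 concentrations, incubate 48 h, interpolate endpoints linearly. Here, GI50 denotes the concentration required for 50% inhibition of growth.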 Calls of active or inactive are those of the source. Rule as the data show it: active = GI50 up to about 1.1 µM and inactive = higher.

Holding throughout (assay): growth of human tumour cells (NCI), 48 h
In test [1] the test system is SNB-75.
The test system of test [2] is SNB-19.
In test [3] the test system is DU-145.
In test [4] the test system is CAKI-1.
In test [5] the test system is MDA-MB-231.
For test [6], the system named is SK-OV-3.
Test [7] has as its system LOX IMVI.
The subject of test [8] is HCT-15.
In test [9] the test system is NCI/ADR-RES.
Test [10] relates to NCI-H522.
Test [11] has as its system U-251.
In test [12] the test system is SF-539.
The test system of test [13] is SW-620.
Test [14] concerns HOP-62.
Test [15] has as its system OVCAR-3.
The subject of test [16] is HOP-92.
Test [17] deals with Malme-3M.
The subject of test [18] is CCRF-CEM.

Turning to `CC(C)(C)c1ccc(CN2CCN(C(c3ccccc3)c3ccc(Cl)cc3)CC2)cc1` (stereo not given), the GI50 in test [1], in test [2], in [3], in test [4], in test [5] and in test [6] was > 100 µM (inactive) throughout. The GI50 was 34.4 µM (inactive) in [7]; 29.9 µM in [8]; > 100 µM (inactive) in test [9]; 23.4 µM (inactive) in [10]; 45.1 µM (inactive) in [11]; 30.3 µM (inactive) in test [12]. Besides, the GI50 in [13] is > 100 µM (inactive); in test [14] it was > 100 µM (inactive); in [15] it was 58.7 µM (inactive); in test [16] it was > 100 µM (inactive); in [17], 45.6 µM (inactive).
On to `O=CC1=C(C(=O)OC(c2ccccc2)c2ccccc2)N2C(=O)[C@@H](NC(=O)Cc3cccs3)[C@H]2SC1`, for which the GI50 in [1], in test [3], in [4], in [5], in [6] and in [7] was > 100 µM (inactive) throughout. Moreover, the GI50 in [8] is over 100 µM; in test [9] it was > 100 µM (inactive); in test [10], 64.3 µM (inactive); in test [11], > 100 µM (inactive); in test [12], > 100 µM (inactive); in test [18] it was 57.3 µM (inactive). The GI50 in [13], in test [15], in test [16] and in test [17] was > 100 µM (inactive) each time.
As for `O=C1c2cscc2C(=O)c2c(OCc3ccccc3)ccc(OCc3ccccc3)c21`, the GI50 was 56 µM (inactive) in [1]; > 100 µM (inactive) in [2]; > 100 µM (inactive) in test [3]; > 100 µM (inactive) in test [4]; > 100 µM (inactive) in [5]; > 100 µM (inactive) in test [6]. For the same molecule, the GI50 in test [7] was 97.9 µM (inactive); in test [9], > 100 µM (inactive); in test [10], > 100 µM (inactive); in test [12] it was > 100 µM (inactive); in test [18], 53.8 µM (inactive); in test [13], > 100 µM (inactive). The GI50 in test [14], in test [15], in test [16] and in test [17] was > 100 µM (inactive) throughout.
As for `CC(=O)Oc1cc(Cl)c(C)c2c1[C@H]1CC[C@]3(C)[C@@H](OC(C)=O)CC[C@H]3[C@@H]1CC2`, the GI50 in test [1] is > 100 µM (inactive); in test [2] it was > 100 µM (inactive); in test [3], > 100 µM (inactive); in test [5], > 100 µM (inactive); in [7], > 100 µM (inactive); in [8], 50.4 µM. Further, the GI50 in test [9] was > 100 µM (inactive); in [10] it was > 100 µM (inactive); in test [11], 94.2 µM (inactive); in test [12], > 100 µM (inactive); in test [18], > 100 µM (inactive); in test [13], > 100 µM (inactive). Further, the GI50 in [14], in test [15], in [16] and in test [17] was > 100 µM (inactive) throughout.
Consider `N#CC1C=Cc2ccccc2N1C(=O)Oc1ccccc1` (stereo not given), for which the GI50 was 93.5 µM (inactive) in test [1]; 74.8 µM (inactive) in test [2]; 31.9 µM (inactive) in test [3]; 84.3 µM (inactive) in test [4]; 68.2 µM (inactive) in test [5]; 39.9 µM (inactive) in test [7]. Also, the GI50 in test [8] was 42.1 µM; in test [9], 55.5 µM (inactive); in test [10] it was 22 µM (inactive); in [11], 44.1 µM (inactive); in test [12] it was 69.8 µM (inactive); in [18], 19.9 µM (inactive). Also, the GI50 in [13] was 36.2 µM (inactive); in test [16], 58.6 µM (inactive); in test [17], 48.4 µM (inactive).
With `O=C(O)CN(CC(=O)O)Cc1ccn(-c2cccc(-n3ccc(CN(CC(=O)O)CC(=O)O)n3)n2)n1`, the GI50 in [1], in test [2], in test [3], in [4], in [5] and in [6] was > 100 µM (inactive) each time. Further, the GI50 is over 100 µM in test [8]; > 100 µM (inactive) in test [9]; > 100 µM (inactive) in test [10]; 21.1 µM (inactive) in [11]; > 100 µM (inactive) in test [12]; > 100 µM (inactive) in [13]. Besides, the GI50 in test [14], in test [15], in [16] and in test [17] was > 100 µM (inactive) in each case.
`O=C(Nn1c(-c2ccccc2)nc2ccccc2c1=O)c1ccc(O)cc1`: the GI50 in test [1] was > 100 µM (inactive); in [2], > 100 µM (inactive); in test [3] it was > 100 µM (inactive); in test [5], > 100 µM (inactive); in test [6], > 100 µM (inactive); in test [8], over 100 µM. Further, the GI50 in test [9], in [10], in test [11], in test [12], in test [18] and in test [13] was > 100 µM (inactive) throughout. In addition, the GI50 in test [14], in test [15], in test [16] and in test [17] was > 100 µM (inactive) each time.
Turning to `CC(CO)CCNc1ncnc2c1ncn2CCC(=O)O` (stereo not given), the GI50 in test [1], in test [2], in test [3], in test [4], in test [5] and in [6] was > 100 µM (inactive) each time. The GI50 in [7], in test [9], in [10], in test [12], in test [18] and in test [13] was > 100 µM (inactive) each time. The GI50 in [14], in test [15], in [16] and in test [17] was > 100 µM (inactive) throughout.
Regarding `CC[C@H]1C=CCC[C@@]2(C[C@@H]3CC[C@@H]4[C@H](C(=O)OCCCCCCCCCCCCCCCC(=O)O)[C@]5(CCC[C@@H](C)O5)NC(=[N+]34)N2)O1` [CRAMBESCIDIN 657], the GI50 was 0.365 µM (active) in [2]; 0.191 µM (active) in test [3]; 0.182 µM (active) in [4]; 0.281 µM (active) in test [5]; 5.38 µM (inactive) in test [6]; 0.12 µM (active) in test [7]. Also, the GI50 in test [8] was 0.525 µM; in test [9], 4.61 µM (inactive); in test [10] it was 0.131 µM (active); in test [11], 0.183 µM (active); in [12], 0.272 µM (active); in [18], 0.005 µM (active). Moreover, the GI50 in test [13] is 0.189 µM (active); in test [14], 0.367 µM (active); in test [15], 0.301 µM (active); in [16], 0.153 µM (active); in test [17] it was 0.153 µM (active).
